In US4407815A, “β-Lactam antibacterial compounds, their preparation and pharmaceutical compositions containing them” (Beecham Group Limited, priority 1980, dated 1983):

What was measured:
Assay in all cases: Minimum Inhibitory Concentration, serial dilution on DST agar
Format in all cases: cell-based
[1] = tested on: S. typhimurium; details: DST agar + 10% horse blood, 0.001 ml of 10^-4 dilution (Gram-negative), 37° C., 18 h; for MIC: Salmonella enterica
Procedure: (§1) ^a Determined by serial dilution on DST agar containing 10% horse
(§2) blood using an inoculum of 0.001 ml of a 10^-2 dilution for
(§3) Grampositive bacteria or a 10^-4 dilution for Gramnegative organisms.
(§4) MIC values were read after incubation at 37° C. for 18 h.

[2] = tested on: Klebsiella aerogenes; details: DST agar + 10% horse blood, 0.001 ml of 10^-4 dilution (Gram-negative), 37° C., 18 h
Procedure: as §1, §2, §3, §4

[3] = tested on: Strep. pneumoniae; details: DST agar + 10% horse blood, 0.001 ml of 10^-2 dilution (Gram-positive), 37° C., 18 h
Procedure: as §1, §2, §3, §4

[4] = tested on: Proteus mirabilis; details: DST agar + 10% horse blood, 0.001 ml of 10^-4 dilution (Gram-negative), 37° C., 18 h
Procedure: as §1, §2, §3, §4

[5] = tested on: B. subtilis; details: DST agar + 10% horse blood, 0.001 ml of 10^-2 dilution (Gram-positive), 37° C., 18 h; for MIC: Bacillus subtilis
Procedure: as §1, §2, §3, §4

[6] = tested on: E. coli; details: DST agar + 10% horse blood, 0.001 ml of 10^-4 dilution (Gram-negative), 37° C., 18 h; for MIC: Escherichia coli
Procedure: as §1, §2, §3, §4

[7] = tested on: Staph. aureus Oxford; details: DST agar + 10% horse blood, 0.001 ml of 10^-2 dilution (Gram-positive), 37° C., 18 h; for MIC: Staphylococcus aureus
Procedure: as §1, §2, §3, §4

[8] = tested on: Strep. faecalis; details: DST agar + 10% horse blood, 0.001 ml of 10^-2 dilution (Gram-positive), 37° C., 18 h
Procedure: as §1, §2, §3, §4

[9] = tested on: Staph. aureus Russell; details: lactamase-producing benzylpenicillin-resistant strain, DST agar + 10% horse blood, 0.001 ml of 10^-2 dilution (Gram-positive), 37° C., 18 h; for MIC: Staphylococcus aureus
Procedure: as §1, §2, §3, §4
^b Lactamase-producing benzylpenicillinresistant strain.

| Compound | Minimum Inhibitory Concentration [1] [µg/mL] | Minimum Inhibitory Concentration [2] [µg/mL] | Minimum Inhibitory Concentration [3] [µg/mL] | Minimum Inhibitory Concentration [4] [µg/mL] | Minimum Inhibitory Concentration [5] [µg/mL] | Minimum Inhibitory Concentration [6] [µg/mL] | Minimum Inhibitory Concentration [7] [µg/mL] | Minimum Inhibitory Concentration [8] [µg/mL] | Minimum Inhibitory Concentration [9] [µg/mL] | MIC [1] [µg/mL] | MIC [2] [µg/mL] | MIC [4] [µg/mL] | MIC [5] [µg/mL] | MIC [6] [µg/mL] | MIC [7] [µg/mL] | MIC [9] [µg/mL] | MIC ([3]; Streptococcus pneumoniae) [µg/mL] | MIC ([8]; Enterococcus faecalis) [µg/mL] |
| --- | --- | --- | --- | --- | --- | --- | --- | --- | --- | --- | --- | --- | --- | --- | --- | --- | --- | --- |
| COC(=O)C1=C[C@@H]2[C@H](NC(=O)[C@H](N)c3ccccc3)C(=O)N2[C@H]1C(=O)O.Cc1ccc(N)cc1 (racemic) [(48), (2RS, 5RS, 6SR) 1-Aza-3-methoxycarbonyl-6-D-α-phenylglycylamino-bicyclo-[3.2.0]-hept-3-en-7-one-2-carboxylic acid, p-toluidine salt] | 12.5 | 50 | 0.5 | 25 | 1.2 | 50 | 12.5 | 12.5 | > 50 |  |  |  |  |  |  |  |  |  |
| COC(=O)C1=C[C@@H]2[C@H](NC(=O)C(C(=O)OCc3ccccc3)c3ccccc3)C(=O)N2[C@H]1C(=O)O.Cc1ccc(N)cc1 (mixture of isomers) [(54), (2RS, 5RS, 6SR) 1-Aza-6-(DL-α-benzyloxycarbonyl-phenylacetamido)-3-methoxycarbonylbicyclo [3.2.0]-hept-3-en-7-one-2-carboxylic acid, p-toluidine salt] | 100 | 100 | 10 | > 100 | 25 | > 100 | > 100 | > 100 | > 100 |  |  |  |  |  |  |  |  |  |
| COC(=O)C1=C[C@@H]2[C@H](NC(=O)COc3ccccc3)C(=O)N2[C@H]1C(=O)O (relative stereo) [(39), (2RS, 5RS, 6SR) Sodium 1-aza-3-methoxycarbonyl-6-phenoxyacetamido-bicyclo-[3.2.0]-hept-3-en-7-one-2-carboxylate] |  |  |  |  |  |  |  |  |  | > 100 | > 100 | > 100 | 1 | > 100 | 2.5 | > 100 |  |  |
| N#CC1=C[C@@H]2[C@H](NC(=O)COc3ccccc3)C(=O)N2[C@H]1C(=O)O (relative stereo) [(57)] |  |  |  |  |  |  |  |  |  | > 50 | > 50 | > 50 | 2.5 | > 50 | 5 | 50 | 1.2 | > 50 |
